In the assay the test system is mPTP. Briefly: mPTP human platelet mitochondria membrane potential flow cytometry assay. Format: cell-based. The note with it: stimulated human platelets. The method, then:
The mPTP cell based assay was performed using a mitochondria membrane potential flow cytometry assay in stimulated human platelets. Simulation of platelets results in the rapid influx of Ca^2+ across the platelet membrane. The Ca^2+ is then sequestered by mitochondria until the threshold for mPTP opening is reached, at which point the pore opens and the mitochondrial membrane potential is dissipated. Changes in mitochondria membrane potential due to mPTP opening can be quantified in live platelets using standard mitochondrial membrane potential dyes e.g. 3,3′-dihexyloxacarbocyanine Iodide; DiOC6 (3), enabling pharmacological characterisation of mPTP inhibitors.
Fresh human blood (20 ml) was collected from consented donors into 3.2% sodium citrate. Platelets were isolated by centrifugation at 200 g for 20 min at room temperature, then the platelet rich plasma layer transferred to a fresh tube. Prostaglandin 12 is added to the platelets at a final concentration of 20 ng/ml. After centrifugation at 640 g for 10 min, the platelet rich pellet was resuspended in 4 ml HEPES assay buffer (137 mM NaCl, 2.7 mM KCl, 11.9 mM NaHCO3, 0.42 mM NaH2PO4, 1 mM MgCl2, 5.5 mM glucose, 0.1% bovine serum albumin, 10 mM HEPES adjusted to pH 7.4) and stored on ice.
Test compounds were prepared from 10 mM stocks in DMSO and serially diluted in assay buffer containing 0.4% DMSO and 25 μl transferred into a 96 well plate. Platelets were loaded with the mitochondrial membrane potential dye DiOC6 (3) (3,3′-dihexyloxacarbocyanine Iodide; Invitrogen) at 200 nM for 30 min, then 50 μl plated into each well of the 96 well plate containing diluted test compound and incubated for 15 min. Control wells included DMSO (0.1% final concentration) only or 5 μM cyclosporin A. Platelets were then stimulation with the addition of assay buffer (25 μl) containing CaCl2, alpha thrombin and Convulxin to achieve a final concentrations of 2 mM, 0.017 U/ml and 0.167 μg/ml respectively and incubated for 14 min. The reaction was stopped by the addition of 25 μl 15 mM EDTA in assay buffer. The mitochondrial membrane potential across the population of platelets in each well was then quantified by flow cytometry using a Guava easyCyte 5 Benchtop Flow Cytometer with 3000 events per well. The percentage of platelets with a depolarised mitochondrial membrane potential was calculated for each well. A pIC50 for each compound was then calculated using a standard four parameter curve fit model (GraphPad Prism).

`O=C(/C=C/c1ccc2cn[nH]c2c1)N[C@@H]1CCc2ccccc21` [Example 3, (R,E)-N-(2,3-dihydro-1H-inden-1-yl)-3-(1H-indazol-6-yl)acrylamide]: the “mPTP Human platelets pIC50” value is 7.3.

For `C[C@H]1Cc2ccccc2[C@@H]1NC(=O)/C=C/c1ccc2cn[nH]c2c1` (single isomer, unassigned) [Example 14c], the “mPTP Human platelets pIC50” value was determined as 6.8.

The values are drawn from US12497359B2, “Acrylamide derivatives” (NRG Therapeutics Ltd, priority 2020, dated 2025).
